Assay results: patent US20210145802A1, “THERAPY FOR OPHTHALMOLOGICAL CONDITIONS” (WREN THERAPEUTICS LIMITED, priority 2018, published 2021)

Columns and labels:
[1] = target: T1, Aβ42 (Homo sapiens, UniProt P05067); assay: Seeded Aβ42 aggregation kinetics (2% or 50% preformed fibril seeds); format: biochemical; settings: 2 μM Aβ42
T1 construct: […]; made in house; host or cells: E. coli BL21 Gold (DE3)
Protocol: For the seeded experiments, preformed fibrils were prepared just prior to the experiment. Kinetic experiments were set up as described above for 5 μM Aβ42 samples in 20 mM sodium phosphate buffer, pH 8 with 200 μM EDTA, 0.02% NaN3 and 20 μM ThT. The ThT fluorescence was monitored for 3 hours to verify the formation of fibrils. Samples were then collected from the wells into low-binding tubes. Under the considered conditions (i.e. 5 μM Aβ42), the monomer concentration is negligible at equilibrium. The final concentration of fibrils, in monomer equivalents, was considered equal to the initial concentration of monomer. Fibrils were then added to freshly prepared monomer in order to reach either 2% or 50% final concentration of seeds in the absence or the presence of Netoglitazone.
Inhibitors can interfere with the aggregation process by inhibiting one or more of the individual microscopic steps. We can identify the microscopic events that are inhibited by the chemical compounds by fitting the integrated rate law (Eq. (54) in Cohen et al., J Chem Phys 135, 065106) to the macroscopic aggregation profiles and comparing the fitted set of microscopic rate constants (k+k2 and k+kn in the absence of pre-formed seeds; k+ and k2 in the presence of pre-formed seeds where primary nucleation is bypassed) required to describe the time evolution of the fibril formation in the absence and presence of Netoglitazone. The analysis is analogous to that carried out in Habchi et al., Proc Natl Acad Sci USA; 114(2):E200-E208, 2017 to study the effects of other small molecules on Aβ42 aggregation.

[2] = test system: CL2355 (Aβ1-42Neur worms); assay: Chemotaxis assay, Aβ1-42Neur worms; format: in vivo, C. elegans; settings: 5 μM; 5 days at 24° C.; day 6 of adulthood; compared to untreated worms
Protocol: Chemotaxis measurements were carried out as previously described (O. Margie, C. Palmer, I. Chin-Sang, C. elegans Chemotaxis Assay. J Vis Exp, e50069 (2013)) and as illustrated in FIG. 6C. Briefly, adult synchronized transgenic C. elegans CL2355 worms and wild-type healthy worms were incubated with or without 5 μM Netoglitazone for 5 days 24° C. At day 6 of adulthood the worms were then collected, washed with M9 buffer three times, and assayed in 9 cm screening plates (1.9% agar, 1 mM CaCl2, 1 mM MgSO4, and 25 mM phosphate buffer, pH 6.0) seeded with 50 μl of a 10× culture of Op50 Bacteria or sterile water, as attractant or test conditions, respectively and in combination with 1 μl of 1M Levamisole. Ca. 200 worms were placed in the central quadrant of the plate and incubated at 24° C. for 8 h, after which the chemotaxis index (CI) was scored. The CI was defined as follows (O. Margie et al (2013)):
(number of worms at the attractant locations−number of worms at the control locations)/total number of worms on the plate
Worms that were remaining in the central quadrant were excluded.

[3] = target: A1340 (40-residue isoform of Aβ) (Homo sapiens, UniProt P05067); assay: A1340 aggregation kinetics; settings: 10 μM A1340; 1.25-fold excess
A1340 (40-residue isoform of Aβ), sequence (P05067 672-711 limits assumed): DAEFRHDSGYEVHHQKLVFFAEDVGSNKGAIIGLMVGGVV

[4] = test system: GMC101 (Aβ worms); assay: Survival rate of Aβ worms; format: in vivo, C. elegans; settings: administered at D3; D5 of adulthood
Protocol: Briefly, Netoglitazone stocks (5 mM in 100% DMSO) were used at an appropriate concentration to seed 9-cm NGM plates. Plates were then placed in a laminar flow hood at room temperature (22° C.) for up to 4 hours to dry. C. elegans cultures were then transferred onto media seeded with compound as L4 stage or Day 3 for late treatments and incubated at 24° for the whole experiment. Experiments were carried out at different Netoglitazone concentrations ranging from 0.05 to 500 μM in 1% DMSO. As controls, plates seeded only with 1% DMSO were used.

[5] = test system: NL5901 (α-syn worms); assay: Automated motility assay, α-syn worms; format: in vivo, C. elegans; settings: same concentration range; compared with effect in Aβ worms
Protocol: NL5901 (pkIs2386 [α-synuclein::YFP unc-119(+)]) (“α-syn worms”), in which α-synuclein fused to YFP relocates to inclusions, which are visible as early as day 2 after hatching and increase in number and size during the aging of the animals, up to late adulthood (day 17) (T. J. Van Ham et al., C. elegans model identifies genetic modifiers of α-synuclein inclusion formation during aging. PLoS Genetics. 4 (2008));
Briefly, Netoglitazone stocks (5 mM in 100% DMSO) were used at an appropriate concentration to seed 9-cm NGM plates. Plates were then placed in a laminar flow hood at room temperature (22° C.) for up to 4 hours to dry. […]
All C. elegans populations were cultured at 20° C. and developmentally synchronized from a 4 h egg-lay. At 64-72 h post-egg-lay (time zero), individuals were transferred to FUDR plates, and body movements were assessed over the times indicated. At different ages, the animals were washed off the plates with M9 buffer and spread over an OP-50 unseeded 9 cm plate, after which their movements were recorded at 20 fps using a recently developed microscopic procedure (M. Perni et al., Massively parallel C. elegans tracking provides multi-dimensional fingerprints for phenotypic discovery. J. Neurosci. Methods. 306, 57-67 (2018)) for 1 min. Up to 600 animals were counted in each experiment in duplicate unless stated otherwise. […]

[6] = target: T1, Aβ42; assay: Chemical kinetics analysis of Aβ42 aggregation profiles (rate constants); format: biochemical; settings: 2 μM Aβ42; increasing compound concentrations
Description: The time evolution of the total fibril mass concentration is described as a function only of the initial conditions and the rate constants of the system by the integrated rate law given by Eq. (54) in Cohen et al., J Chem Phys 135, 065106, 2011.
These are related to the rate of formation of new aggregates through primary pathways λ=√{square root over (2k+knm(0)^n^c)} and through secondary pathways κ=√{square root over (2k+k2m(0)^n^2^+1)}, where the initial concentration of soluble monomers is denoted by m(0), nc and n2 describe the dependencies of the primary and secondary pathways on the monomer concentration (nc=n2=2 for Aβ42), and kn, k+ and k2 are the rate constants of the primary nucleation, elongation and secondary nucleation, respectively (Cohen et al., Proc Natl Acad Sci USA, 110(24), 9758-63, 2013). […]
A quantitative analysis was carried out on the effects of the molecules by matching the experimental aggregation profiles to kinetic curves calculated using the rate laws derived from a master equation that relates the time evolution of fibril formation to the rate constants of the different microscopic events. In this approach, the aggregation profiles in the presence of an inhibitor are described by introducing into the rate laws suitable perturbations to each of the microscopic rate constants evaluated in the absence of the inhibitor. […]

T1 sequence (P05067 671-713): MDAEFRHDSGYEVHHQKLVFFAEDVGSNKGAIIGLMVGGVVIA

O=C1NC(=O)C(Cc2ccc3cc(OCc4ccccc4F)ccc3c2)S1 (centres unmarked) [Netoglitazone] was tested, and the “decrease of rate constant of surface-catalyzed secondary nucleation (k2)” value ([1]; 2% seeds, 20-fold excess) was “about 80%”, the “inhibition of secondary pathways (k2k+) with 2% preformed seeds” value ([1]; 2% seeds, range of concentrations) was “concentration-dependent inhibition of secondary pathways” and the “effect on aggregation kinetics with 50% preformed seeds (elongation)” value ([1]; 50% seeds, up to 20-fold excess) was “did not affect the aggregation kinetics”. For the same molecule, the chemotaxis index [2] was “significantly improved”, the “inhibition of A1340 aggregation” value [3] was “able to inhibit A1340 aggregation” and the “survival rate after late administration” value [4] was “increase”. The “effect on mobility of α-syn worms” value [5] was “negligible” and the “effect on rate constants of primary (knk+) and secondary (k2k+) pathways” value [6] was “can affect both nucleation pathways”.
